According to PubChem BioAssay AID1963429 (Molecular Pharmacology Branch, DTP, NCI, 2024):
Each block holds one compound with its values, some of them ahead of it.

System: 126254-015-R-J1-PDC complex spheroid growth, % test/control
Assay: Anticancer human tumor 126254-015-R-J1-PDC patient-derived soft tissue sarcoma cell line growth inhibition [Asc]
Details: for IC50: curve of first compound; for viability, T/C: stronger effect = lower value
Outline: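 Tumor cells were grown as complex spheroids with human endothelial cells (HUVEC) and human mesenchymal stem cells as stroma. Agents were tested alone and in combination, in half-log steps down from the clinical Cmax, or from 10 microM where Cmax was unknown.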
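Note: spheroids exposed to compound for seven days.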
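Throughout, for viability, T/C: 100% = DMSO vehicle control wells.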

IC50 (second compound 0.1 µM): > 1000 nM | IC50 (second compound 0.316 µM): 90.5 nM | IC50 (second compound 1 µM): 107 nM | IC50 (second compound 3.16 µM): 74.8 nM | IC50 (second compound 10 µM): 59.8 nM
SMILES: CNC(C)C(=O)NC1CN(S(=O)(=O)c2cccc(S(=O)(=O)N3CCC4CCC(C(=O)NC(c5ccccc5)c5ccccc5)N4C(=O)C(NC(=O)C(C)NC)C3)c2)CCC2CCC(C(=O)NC(c3ccccc3)c3ccccc3)N2C1=O (stereo not given) + Cc1c(S(C)(=O)=O)c(-c2cc(F)cc(N3CCN(c4ccc(NS(=O)(=O)c5ccc(NC(CCN6CCC(C(=O)OCCCP(=O)(O)O)CC6)CSc6ccccc6)c(S(=O)(=O)C(F)(F)F)c5)cc4)CC3)c2)c(-c2ccc(Cl)cc2)n1C(C)C
viability, T/C (second compound 0.1 µM, first compound 0.00316 µM): 83% | viability, T/C (second compound 0.1 µM, first compound 0.01 µM): 84.8% | viability, T/C (second compound 0.1 µM, first compound 0.0316 µM): 67.3% | viability, T/C (second compound 0.1 µM, first compound 0.1 µM): 55.6% | viability, T/C (second compound 0.1 µM, first compound 0.316 µM): 56.2% | viability, T/C (second compound 0.1 µM, first compound 1 µM): 45% | viability, T/C (second compound 0.316 µM, first compound 0.00316 µM): 85.8% | viability, T/C (second compound 0.316 µM, first compound 0.01 µM): 81.9% | viability, T/C (second compound 0.316 µM, first compound 0.0316 µM): 63.1% | viability, T/C (second compound 0.316 µM, first compound 0.1 µM): 47.3% | viability, T/C (second compound 0.316 µM, first compound 0.316 µM): 49.7% | viability, T/C (second compound 0.316 µM, first compound 1 µM): 36.5% | viability, T/C (second compound 1 µM, first compound 0.00316 µM): 87.5% | viability, T/C (second compound 1 µM, first compound 0.01 µM): 81.5% | viability, T/C (second compound 1 µM, first compound 0.0316 µM): 66.9% | viability, T/C (second compound 1 µM, first compound 0.1 µM): 47.9% | viability, T/C (second compound 1 µM, first compound 0.316 µM): 46.9% | viability, T/C (second compound 1 µM, first compound 1 µM): 36.3% | viability, T/C (second compound 3.16 µM, first compound 0.00316 µM): 90.7% | viability, T/C (second compound 3.16 µM, first compound 0.01 µM): 79% | viability, T/C (second compound 3.16 µM, first compound 0.0316 µM): 60.7% | viability, T/C (second compound 3.16 µM, first compound 0.1 µM): 46.1% | viability, T/C (second compound 3.16 µM, first compound 0.316 µM): 38.1% | viability, T/C (second compound 3.16 µM, first compound 1 µM): 32.6% | viability, T/C (second compound 10 µM, first compound 0.00316 µM): 80.2% | viability, T/C (second compound 10 µM, first compound 0.01 µM): 78.6% | viability, T/C (second compound 10 µM, first compound 0.0316 µM): 64.3% | viability, T/C (second compound 10 µM, first compound 0.1 µM): 38.2% | viability, T/C (second compound 10 µM, first compound 0.316 µM): 30.6% | viability, T/C (second compound 10 µM, first compound 1 µM): 27.8%

IC50 (second compound 0.01 µM): 61 nM | IC50 (second compound 0.0316 µM): 24.4 nM | IC50 (second compound 0.1 µM): 24.3 nM | IC50 (second compound 0.316 µM): 16.8 nM | IC50 (second compound 1 µM): 10.5 nM
SMILES: NC(=O)C(=Cn1cnc(-c2cc(C(F)(F)F)cc(C(F)(F)F)c2)n1)c1cncnc1 + CNC(C)C(=O)NC1CN(S(=O)(=O)c2cccc(S(=O)(=O)N3CCC4CCC(C(=O)NC(c5ccccc5)c5ccccc5)N4C(=O)C(NC(=O)C(C)NC)C3)c2)CCC2CCC(C(=O)NC(c3ccccc3)c3ccccc3)N2C1=O
viability, T/C (second compound 0.01 µM, first compound 0.000949 µM): 85.8% | viability, T/C (second compound 0.01 µM, first compound 0.003 µM): 87.5% | viability, T/C (second compound 0.01 µM, first compound 0.00949 µM): 73% | viability, T/C (second compound 0.01 µM, first compound 0.03 µM): 64.7% | viability, T/C (second compound 0.01 µM, first compound 0.0949 µM): 41.6% | viability, T/C (second compound 0.01 µM, first compound 0.3 µM): 9.66% | viability, T/C (second compound 0.0316 µM, first compound 0.000949 µM): 80.4% | viability, T/C (second compound 0.0316 µM, first compound 0.003 µM): 77.7% | viability, T/C (second compound 0.0316 µM, first compound 0.00949 µM): 62.7% | viability, T/C (second compound 0.0316 µM, first compound 0.03 µM): 47.7% | viability, T/C (second compound 0.0316 µM, first compound 0.0949 µM): 25.9% | viability, T/C (second compound 0.0316 µM, first compound 0.3 µM): 9% | viability, T/C (second compound 0.1 µM, first compound 0.000949 µM): 58.2% | viability, T/C (second compound 0.1 µM, first compound 0.003 µM): 62.7% | viability, T/C (second compound 0.1 µM, first compound 0.00949 µM): 55.9% | viability, T/C (second compound 0.1 µM, first compound 0.03 µM): 48.9% | viability, T/C (second compound 0.1 µM, first compound 0.0949 µM): 23% | viability, T/C (second compound 0.1 µM, first compound 0.3 µM): 5.96% | viability, T/C (second compound 0.316 µM, first compound 0.000949 µM): 60% | viability, T/C (second compound 0.316 µM, first compound 0.003 µM): 60.8% | viability, T/C (second compound 0.316 µM, first compound 0.00949 µM): 54.7% | viability, T/C (second compound 0.316 µM, first compound 0.03 µM): 44% | viability, T/C (second compound 0.316 µM, first compound 0.0949 µM): 15.1% | viability, T/C (second compound 0.316 µM, first compound 0.3 µM): 3.45% | viability, T/C (second compound 1 µM, first compound 0.000949 µM): 51.9% | viability, T/C (second compound 1 µM, first compound 0.003 µM): 57.5% | viability, T/C (second compound 1 µM, first compound 0.00949 µM): 53.4% | viability, T/C (second compound 1 µM, first compound 0.03 µM): 35.8% | viability, T/C (second compound 1 µM, first compound 0.0949 µM): 18.8% | viability, T/C (second compound 1 µM, first compound 0.3 µM): 5.88%
